US20180055816A1, “PYRANONAPHTHOQUINONE COMPOUNDS AND METHODS OF USE THEREOF” (University of Kentucky Research Foundation, priority 2016, published 2018)

Assays:
[1] = test system: H2O2; assay: Cellular H2O2 level in HCT116 cells; assay type: cell-based, human; details: HCT116, 2 μM, 5 h
Method: The ROS production was determined using the CellROX Deep Red Flow Cytometry Assay Kit according to the manufacturer's protocol (Life Technologies). Briefly, cells were treated with 2 μM of the indicated compounds or DMSO as control for 1 h. After treatment, cells were incubated with 0.5 μM of CellROX Deep Red reagent for 1 h at 37° C., washed twice with PBS and immediately analyzed by a FACScan flow cytometer. For the measurement of cellular H2O2 level, cells were treated with 2 μM of the indicated compounds for 5 h.

[2] = test system: cellular GSH; assay: Cellular glutathione (GSH) assay in HCT116 cells; assay type: cell-based, human; details: HCT116, 2 μM, 5 h
Method: Cells were treated with 2 μM of the indicated compounds or DMSO as control for 5 h. After treatment, a total number of 1×10^6 cells were lysed in 100 μl of ice-cold NP-40 lysis buffer for 10 min. The lysate was centrifuged for 10 min and the supernatant was used for glutathione assay using the ApoGSH glutathione detection kit according to the manufacturer's protocol (BioVision Research Products, Mountain view, CA). The total amount of GSH was measured using a fluorescence plate reader at Ex./Em.=380/460 nm.

[3] = biological target: T1, Grx3 (Homo sapiens, UniProt O76003); assay: Affinity pull-down / binding to Grx3; details: streptavidin pull-down, competition, Western blot
T1 construct: endogenous in cells; host or cells: HeLa cell lysates; HCT116 cell lysates
T1 sequence (O76003 1-335): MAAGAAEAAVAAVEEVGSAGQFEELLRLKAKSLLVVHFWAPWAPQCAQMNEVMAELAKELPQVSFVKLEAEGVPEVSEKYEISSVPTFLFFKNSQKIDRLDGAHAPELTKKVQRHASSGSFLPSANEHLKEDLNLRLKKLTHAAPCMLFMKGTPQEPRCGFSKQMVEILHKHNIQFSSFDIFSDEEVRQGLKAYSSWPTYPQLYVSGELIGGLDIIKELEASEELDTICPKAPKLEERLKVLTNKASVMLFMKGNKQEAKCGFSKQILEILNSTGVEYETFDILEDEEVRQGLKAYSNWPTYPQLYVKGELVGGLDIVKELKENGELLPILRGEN
Method: (§1) The precipitates were resolved by SDS-PAGE, and the gel was stained with Coomassie blue. (C) Sequences illustrating amino acids and peptides of Prx1 and Grx3 identified by mass spectrometry analysis. The unique bands as shown by d7-pull down in the experiment for FIG. 20B were excised and subjected to in-gel tryptic digestion and analysis by MS, wherein the identified amino acids and peptides are shown in red characters. (D) Western blot illustrating that HCT116 cell lysates were incubated with different concentrations of d5 or d7 in the absence or presence of a ten-fold excess of FB for 3 h, followed by pull-down with streptavidin-agarose and Western blot analysis for the indicated proteins.
(§2) FIGS. 21A-D show images illustrating that the active probe d7 binds to and co-localizes with Prx1 and Grx3. (A) and (B) The recombinant Prx1 (A) or Grx3 (B) was incubated with d7 for 2 hours, followed by streptavidin pull down and Western blot analysis for the indicated proteins. (C) and (D) HCT116 cells were incubated with 25 μM d5, 25 μM d7 or DMSO as control for 5 hours, followed by confocal sections of the cells staining for Prx1 (C) or Grx3 (D) (red), biotin (green) and DAPI (blue). Scale bars, 10 μm.
(§3) HeLa cell pellets were purchased from National Cell Culture Center (Minneapolis, Minn.) and lysed in 20 ml of the NP-40 lysis buffer. […]

[4] = test system: p70S6K phosphorylation; assay: p70S6K phosphorylation in HCT116 cells (Western blot); assay type: cell-based, human; details: HCT116, 12 h; 2 μM FB or UCF76-A, 100 nM rapamycin, 0.5 μM AZD8055
Method: (§4) HCT116 cells were treated with 1 μM MK2206 and 100 nM PD0325901 alone and in combination, 100 nM rapamycin, 0.5 μM AZD8055, 2 μM UCF76-A or 2 μM FB for 12 h followed by Western blot analysis for the indicated proteins.
(§5) Cells were lysed in NP-40 lysis buffer (50 mM Tris-HCl, pH 7.5, 150 mM NaCl, 1 mM EDTA, 1% NP-40, 10% glycerol, protease and phosphatase inhibitor cocktail). Western blot analysis were performed using equivalent total protein loadings as described previously. For immunoprecipitation, the cell lysates were incubated with the indicated antibody overnight followed by incubation with a 50% slurry of protein G sepharose beads for 3 h at 4° C. The beads were washed three times with the lysis buffer, and the immunoprecipitated protein complexes were resuspended in 2× Laemmli sample buffer followed by western blot analysis.

[5] = biological target: T2, Prx1 (Homo sapiens, UniProt Q06830); assay: Affinity pull-down / binding to Prx1; set-up: endogenous in cells; host or cells: HeLa cell lysates; HCT116 cell lysates; details: streptavidin pull-down, competition, Western blot
T2 sequence (Q06830 1-199): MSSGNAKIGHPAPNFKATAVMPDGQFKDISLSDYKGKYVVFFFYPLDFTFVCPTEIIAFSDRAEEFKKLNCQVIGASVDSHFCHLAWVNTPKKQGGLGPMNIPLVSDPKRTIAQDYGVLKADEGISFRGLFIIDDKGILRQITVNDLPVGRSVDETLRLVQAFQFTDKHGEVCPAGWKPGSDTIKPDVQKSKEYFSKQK
Method: as §1, §2, §3

[6] = test system: caspase 3; assay: Caspase 3 activation / cleaved PARP in HCT116 cells (Western blot); assay type: cell-based, human; details: HCT116, 2 μM, 12 h
Method: as §4, §5

[7] = test system: 4E-BP1 phosphorylation; assay: 4E-BP1 phosphorylation in MDA-MB-231 breast cancer cells (Western blot); assay type: cell-based, human; details: MDA-MB-231 cells, 2 μM, 12 hours
Method: Cells were treated with 100 nM rapamycin, 0.5 μM AZD8055, 2 μM FB, 2 μM UCF76-A or DMSO control for 12 hours followed by Western blot analysis for the indicated proteins.
as §5

[8] = test system: S6 phosphorylation; assay: S6 phosphorylation in HCT116 cells (Western blot); assay type: cell-based, human; details: HCT116, 12 h; 2 μM FB or UCF76-A, 100 nM rapamycin, 0.5 μM AZD8055
Method: as §4, §5

[9] = test system: AKT phosphorylation; assay: AKT phosphorylation in HCT116 cells (Western blot); assay type: cell-based, human; details: HCT116, 12 h; 2 μM FB or UCF76-A, 0.5 μM AZD8055, 1 μM MK2206
Method: as §4, §5

CCCC1OC2CC(=O)OC2C2=C1C(=O)c1c(O)cccc1C2=O (stereo not drawn) [FB, frenolicin B]
cellular H2O2 [1]: marked increase
GSH levels [2]: decrease
binding to Grx3 [3]: directly targets
inhibition of p70S6K phosphorylation [4]: only weakly inhibited
binding to Prx1 [5]: directly targets
activation of caspase 3 with induction of cleaved PARP [6]: potent activators
inhibition of 4E-BP1 phosphorylation [7]: selectively inhibit
inhibition of S6 phosphorylation [8]: did not inhibit
inhibition of AKT phosphorylation [9]: did not inhibit
